Measured values from paper PMC2748101, “Transcriptome analysis of the responses of Staphylococcus aureus to antimicrobial peptides and characterization of the roles of vraDE and vraSR in antimicrobial resistance” (BMC Genomics, 2009).
Converted amounts (≈) assume the structure as drawn. “And” between values parts separate entries of the source, which are not always exact repeats. Equal entries are not always repeated. Where two headings read alike, the source gives them in different places. Where a SMILES comes first, the peptide text is derived from it. Bridges are numbered along the chain shown (N, C = ends). Where no end group is shown, it is not given here. [ ]: non-standard residue; d: D form. The star is where a group is joined. Ileψ(thiazoline)Cys = CC[C@H](C)[C@H](N)C1=N[C@H](C(=O)*)CS1; dOrn = NCCC[C@@H](N)C(=O)O

Key:
[1] = system: S. aureus Newman; assay: qRT-PCR of gene induction in treated wild-type cells; format: cell-based, Staphylococcus aureus; details: 10 min; for Fold induction SA0205 / Fold induction groEL / Fold induction prsA / Fold induction vraD: 5 × MIC (temporin-L-NH2 subinhibitory 2 μg/ml, pentaglycine 20 μg/ml), treated/untreated, mean of three experiments (SD)
[2] = system: S. aureus RN4220; details: Mueller-Hinton broth, 16-24 h, 37°C, two-fold dilution series, performed twice
[3] = system: ΔvraDE/ RN4220; details: Mueller-Hinton broth, 16-24 h, 37°C, two-fold dilution series, performed twice
[4] = system: S. aureus Newman
[5] = system: ΔvraSR/S. aureus Newman; details: for MIC: ΔvraSR/S. aureus Newman, 16-24 h, 37°C, two-fold dilution series, performed twice; for Effect of the ΔvraSR mutation on sensitivity: MIC, 100%, 50% (LL-37, nisin, Pep5) or 25% (hBD3) Mueller-Hinton broth
[6] = system: ΔvraDE/S. aureus Newman; details: Mueller-Hinton broth; for MIC: ΔvraDE/S. aureus Newman, 16-24 h, 37°C, two-fold dilution series, performed twice
[7] = system: ΔvraSR/ RN4220; details: Mueller-Hinton broth, 16-24 h, 37°C, two-fold dilution series, performed twice
[8] = system: ΔvraDE/S. aureus Newman; assay: microbe, parasite or virus in culture; details: Staphylococcus aureus
[9] = system: ΔvraSR/S. aureus Newman; assay: microbe, parasite or virus in culture; details: Staphylococcus aureus
[10] = system: ΔvraSR/ RN4220; assay: microbe, parasite or virus in culture; details: Staphylococcus aureus
[11] = system: ΔvraDE/ RN4220; assay: microbe, parasite or virus in culture; details: Staphylococcus aureus
[12] = system: S. aureus RN4220; assay: microbe, parasite or virus in culture; details: Staphylococcus aureus
[13] = system: wild-type S. aureus Newman; format: cell-based, Staphylococcus aureus
[14] = system: S. aureus Newman; format: cell-based, Staphylococcus aureus
[15] = S. aureus Newman, Mueller-Hinton broth, 16-24 h, 37°C, two-fold dilution series, performed twice

## CC[C@H](C)[C@H](N)C1=N[C@H](C(=O)N[C@@H](CC(C)C)C(=O)N[C@H](CCC(=O)O)C(=O)N[C@H](C(=O)N[C@H]2CCCCNC(=O)[C@H](CC(N)=O)NC(=O)[C@@H](CC(=O)O)NC(=O)[C@H](Cc3cnc[nH]3)NC(=O)[C@@H](Cc3ccccc3)NC(=O)[C@H]([C@@H](C)CC)NC(=O)[C@@H](CCCN)NC2=O)[C@@H](C)CC)CS1 [Bacitracin] ({Ileψ(thiazoline)Cys}-L[dE]IK[dOrn]I[dF]H[dD]N; lactam 4-C)
[1]
  Fold induction SA0205: 51.4 (0.8) fold
  Fold induction groEL: 3.6 (0.1) fold
  Fold induction prsA: 27.9 (4.5) fold
  Fold induction vraD: 467.5 (15.3) fold
[1]; listed as bacitracin
  Fold induction SA0205: 30-50 fold
  Fold induction prsA: 30-50 fold
  Fold induction vraD: ~500 fold
[2]
  MIC: 20 µg/mL (≈ 14.1 µM)
[3]
  MIC: 2.5 µg/mL (≈ 1.76 µM)
[4]; [15]
  MIC: 20 µg/mL (≈ 14.1 µM)
[5]; Mueller-Hinton broth
  Difference in MIC (increased sensitivity), ΔvraSR mutant versus wild-type: 4 fold
  MIC: 5 µg/mL (≈ 3.51 µM)
[6]
  Difference in MIC, ΔvraDE mutant versus wild-type: about 10 fold
  MIC: 2.5 µg/mL (≈ 1.76 µM)
[7]
  MIC: 5 µg/mL (≈ 3.51 µM)

## CN[C@H](CC(C)C)C(=O)N[C@H]1C(=O)N[C@@H](CC(N)=O)C(=O)N[C@H]2C(=O)N[C@H]3C(=O)N[C@H](C(=O)N[C@H](C(=O)O)c4cc(O)cc(O)c4-c4cc3ccc4O)[C@H](O)c3ccc(c(Cl)c3)Oc3cc2cc(c3O[C@@H]2O[C@H](CO)[C@@H](O)[C@H](O)[C@H]2O[C@H]2C[C@](C)(N)[C@H](O)[C@H](C)O2)Oc2ccc(cc2Cl)[C@H]1O [Vancomycin]
[4]
  MIC: 1 µg/mL (≈ 0.69 µM)
[8]
  MIC: 1 µg/mL (≈ 0.69 µM)
[9]
  MIC: 1 µg/mL (≈ 0.69 µM)
[10]
  MIC: 0.5 µg/mL (≈ 0.345 µM)
[11]
  MIC: 1 µg/mL (≈ 0.69 µM)
[12]
  MIC: 1 µg/mL (≈ 0.69 µM)

## A(D-Glu)K(D-Ala)GGGGGA(D-Glu)K(D-Ala) [Pentaglysin]
[1]; 20 μg/ml
  Induction of vraD, SA0205, prsA and groEL (in words): did not induce any of the four genes
[1]
  Fold induction SA0205: 1.3 (0.1) fold
  Fold induction groEL: 1.1 (0.0) fold
  Fold induction prsA: 1.3 (0.0) fold
  Fold induction vraD: 1.0 (0.0) fold
[4]; 20 μg/ml
  Antimicrobial activity at the concentration used: not antimicrobial

## CN(C)CCCN1c2ccccc2Sc2ccc(Cl)cc21 [chlorpromazine]
[13]
  Growth of wild-type strain in the presence of the antimicrobial: grew significantly

## KNLRRIIRKIIHIIKKYG-OH [Ovispirin-1]
[1]
  Fold induction SA0205: 5.1 (1.0) fold
  Fold induction groEL: 2.5 (0.5) fold
  Fold induction prsA: 7.2 (1.6) fold
  Fold induction vraD: 3.7 (0.5) fold
[2]
  MIC: 20 µg/mL
[3]
  MIC: 20 µg/mL
[4]; [15]
  MIC: 20 µg/mL
[5]
  Effect of the ΔvraSR mutation on sensitivity: did not affect the sensitivity
[5]; Mueller-Hinton broth
  MIC: 20 µg/mL
[6]
  MIC: 20 µg/mL
[7]
  MIC: 20 µg/mL

## hBD3 (GIINTLQKYYCRVRGGRCAVLSCLPKEEQIGKCSTRGRKCCRRKK; UniProt P81534 23-67, looked up)
[5]
  Effect of the ΔvraSR mutation on sensitivity: did not affect the sensitivity

## LL-37: human cathelicidin (LLGDFFRKSKEKIGKEFKRIVQRIKDFLRNLVPRTES; Antibacterial peptide LL-37; UniProt P49913 134-170, looked up)
[5]
  Effect of the ΔvraSR mutation on sensitivity: did not affect the sensitivity

## ALWKTLLKKVLKAAAK-NH2 [Dermaseptin K4-S4(1-16)-NH2]
[14]
  Number of genes with decreased expression: 134 genes
[14]; n=3
  Fold induction SA0336: 2.2, 2.1, 2.1 fold
  Fold induction SA0342: 2.2, 2.2 fold
  Fold induction SA0358: 2.4, 2.4 fold
  Fold induction SA0428: 2.3 fold and 3.6, 2.4, 2.3 fold
  Fold induction SA0526: 2.2, 2.0 fold
  Fold induction SA0591: 2.1 fold and 3.0, 3.3, 2.1 fold
  Fold induction SA0825 (spsA): 2.0 fold and 2.6, 3.5, 2.0 fold
  Fold induction SA0826 (spsB): 2.1, 2.7, 2.0 fold
  Fold induction SA0903: 2.6 fold and 2.1, 4.1, 2.6 fold
  Fold induction SA0914: 2.3, 2.5, 2.0 fold
  Fold induction SA0962: 2.4, 2.8, 2.4 fold
  Fold induction SA1184 (citB): 2.5, 2.4, 2.0 fold
  Fold induction SA1217: 3.0, 2.4 fold
  Fold induction SA1218 (pstB): 2.9 fold
  Fold induction SA1219: 4.2 fold and 5.4, 4.2 fold
  Fold induction SA1220: 2.3, 2.1 fold
  Fold induction SA1221: 3.1, 2.8 fold
  Fold induction SA1235: 2.4, 2.1, 2.6 fold
  Fold induction SA1476: 3.3 fold and 4.2, 5.3, 3.3 fold
  Fold induction SA1477: 5.5, 6.8, 3.8 fold
  Fold induction SA1517 (citC): 3.1 fold and 4.9, 5.8, 3.1 fold
  Fold induction SA1518 (citZ): 6.0, 6.7, 3.6 fold
  Fold induction SA1549 (htrA): 2.0 fold and 2.9, 3.0, 2.0 fold
  Fold induction SA1659 (prsA): 2.9 fold and 3.2, 4.5, 2.9 fold
  Fold induction SA1700 (vraR): 3.2, 5.0, 2.8 fold
  Fold induction SA1701 (vraS): 2.5 fold and 3.9, 5.3, 2.5 fold
  Fold induction SA1702: 4.3, 5.7, 2.6 fold
  Fold induction SA1703: 3.7, 4.2, 2.1 fold
  Fold induction SA1706: 2.0, 2.0, 2.1 fold
  Fold induction SA1710: 2.2, 2.4, 2.1 fold
  Fold induction SA1820: 2.2 fold and 3.6, 3.0, 2.2 fold
  Fold induction SA1836 (groEL): 2.2 fold and 3.8, 4.3, 2.2 fold
  Fold induction SA1837 (groES): 3.2, 3.6, 2.4 fold
  Fold induction SA1858 (ilvD): 4.9, 2.5, 2.1 fold
  Fold induction SA1860: 15.7, 4.3, 2.1 fold
  Fold induction SA1863 (leuB): 9.7, 4.2, 2.2 fold
  Fold induction SA1971: 2.2, 2.5, 2.2 fold
  Fold induction SA1990: 2.2 fold and 3.4, 2.6, 2.2 fold
  Fold induction SA2113: 2.2 fold and 2.2, 3.7, 2.2 fold
  Fold induction SA2301: 2.3, 2.2, 2.1 fold
  Fold induction SA2343: 2.7 fold and 4.3, 4.3, 2.7 fold
  Fold induction SA2481: 2.1, 3.1, 2.7 fold
  Fold induction SA2493 (vraE): 3.4, 11.8, 6.2 fold
  Fold induction SAS016: 5.4 fold and 5.0, 7.4, 5.4 fold
